Reference: patent US11759462B2, “Spirocyclic compounds as tryptophan hydroxylase inhibitors” (priority 2013, dated 2023)

biological target: T1, Recombinant human TPH1 (MBP tagged) (Homo sapiens, UniProt P17752); assay: TPH1 in vitro inhibition assay (kinetic fluorescence); format: biochemical; details: TPH1 Range (TPH1 inhibition IC50)
T1 construct: cloning full length human TPH1 cDNA in to a bacterial pMAL-c5E expression vector; made in house; host or cells: E. coli BL21 (DE3)
T1 sequence (P17752 1-444): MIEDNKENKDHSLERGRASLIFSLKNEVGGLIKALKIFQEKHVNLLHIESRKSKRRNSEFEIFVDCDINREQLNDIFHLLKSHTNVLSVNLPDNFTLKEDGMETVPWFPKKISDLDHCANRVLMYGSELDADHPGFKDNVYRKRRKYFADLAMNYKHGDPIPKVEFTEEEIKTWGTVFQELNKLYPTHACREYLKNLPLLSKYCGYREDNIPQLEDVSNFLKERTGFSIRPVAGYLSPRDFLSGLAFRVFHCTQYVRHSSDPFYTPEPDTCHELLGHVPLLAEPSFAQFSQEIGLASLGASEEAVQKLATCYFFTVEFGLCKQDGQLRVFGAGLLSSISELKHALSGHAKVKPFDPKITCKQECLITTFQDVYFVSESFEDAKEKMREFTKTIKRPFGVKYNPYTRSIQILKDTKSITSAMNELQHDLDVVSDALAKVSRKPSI
How it was run: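 Final mix: 15 nM MBP-TPH1, 30 μM Trp, 36 μM 6-methyltetrahydropterin, 25 μM ferrous ammonium sulfate, 50 mM MES pH 7.1, 1% DMSO, room temperature.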

`CN1CCc2cc(-c3ccc([C@@H](Oc4cc(N5CCC6(CC5)CN[C@H](C(=O)O)C6)nc(N)n4)C(F)(F)F)cc3)ccc2C1=O` [Example 55bj, (S)-8-(2-amino-6-((R)-2,2,2-trifluoro-1-(4-(2-methyl-1-oxo-1,2,3,4-tetrahydroisoquinolin-6-yl)phenyl)ethoxy)pyrimidin-4-yl)-2,8-diazaspiro[4.5]decane-3-carboxylic acid] and `Cc1ccn(-c2cc(-c3ccc(Cl)c(Cl)c3)ccc2[C@@H](Oc2cc(N3CCC4(CC3)CN[C@H](C(=O)O)C4)nc(N)n2)C(F)(F)F)n1` [Example 1af, (S)-8-(2-amino-6-((R)-1-(3′,4′-dichloro-3-(3-methyl-1H-pyrazol-1-yl)-[1,1′-biphenyl]-4-yl)-2,2,2-trifluoroethoxy)pyrimidin-4-yl)-2,8-diazaspiro[4.5]decane-3-carboxylic acid] cannot be ordered by IC50: less than 0.05 µM for the first, less than 0.05 µM for the second.

`Cc1cccc(-c2cc(Cl)ccc2[C@@H](Oc2cc(N3CCC4(CC3)CN[C@H](C(=O)O)C4)nc(N)n2)C(F)(F)F)c1` [Example 34b, (S)-8-(2-amino-6-((R)-1-(5-chloro-3′-methyl-[1,1′-biphenyl]-2-yl)-2,2,2-trifluoroethoxy)pyrimidin-4-yl)-2,8-diazaspiro[4.5]decane-3-carboxylic acid] and `Nc1nc(O[C@H](c2ccc(Cl)cc2-c2cc(F)cc(Cl)c2)C(F)(F)F)cc(N2CCC3(CC2)CN[C@H](C(=O)O)C3)n1` [Example 34an, (S)-8-(2-amino-6-((R)-1-(3′,5-dichloro-5′-fluoro-[1,1′-biphenyl]-2-yl)-2,2,2-trifluoroethoxy)pyrimidin-4-yl)-2,8-diazaspiro[4.5]decane-3-carboxylic acid] cannot be ordered by IC50: less than 0.05 µM for the first, less than 0.05 µM for the second.

same assay, conditions: read-out: TPH1 Range (TPH1 inhibition IC50)

`Nc1nc(O[C@H](c2ccc(-c3ccccc3)cc2)C(F)(F)F)cc(N2CCC3(CC2)CN[C@H](C(=O)O)C3)n1` [Example 55a, (S)-8-(6-((R)-1-([1,1′-biphenyl]-4-yl)-2,2,2-trifluoroethoxy)-2-aminopyrimidin-4-yl)-2,8-diazaspiro[4.5]decane-3-carboxylic acid] and `Cc1ccn(-c2cc(C(O)CO)ccc2[C@@H](Oc2cc(N3CCC4(CC3)CN[C@H](C(=O)O)C4)nc(N)n2)C(F)(F)F)n1` (stereo partly drawn) [Example 13, (3S)-8-(2-amino-6-((1R)-1-(4-(1,2-dihydroxyethyl)-2-(3-methyl-1H-pyrazol-1-yl)phenyl)-2,2,2-trifluoroethoxy)pyrimidin-4-yl)-2,8-diazaspiro[4.5]decane-3-carboxylic acid] fall in the same range of IC50: 0.05 to 0.3 µM for the first, 0.05 to 0.3 µM for the second.

Compared with `CN(C)Cc1ccc(-c2ccc([C@@H](Oc3cc(N4CCC5(CC4)CN[C@H](C(=O)O)C5)nc(N)n3)C(F)(F)F)cc2)cc1` [Example 55bf, (S)-8-(2-amino-6-((R)-1-(4′-((dimethylamino)methyl)-[1,1′-biphenyl]-4-yl)-2,2,2-trifluoroethoxy)pyrimidin-4-yl)-2,8-diazaspiro[4.5]decane-3-carboxylic acid], `Cc1ccn(-c2cc(-c3ccc(-c4nnc(C)o4)c(F)c3)ccc2[C@@H](Oc2cc(N3CCC4(CC3)CN[C@H](C(=O)O)C4)nc(N)n2)C(F)(F)F)n1` [Example 1cb, (S)-8-(2-amino-6-((R)-2,2,2-trifluoro-1-(3′-fluoro-4′-(5-methyl-1,3,4-oxadiazol-2-yl)-3-(3-methyl-1H-pyrazol-1-yl)-[1,1′-biphenyl]-4-yl)ethoxy)pyrimidin-4-yl)-2,8-diazaspiro[4.5]decane-3-carboxylic acid] is lower in IC50: 0.05 to 0.3 µM for the first, less than 0.05 µM for the second. The second is the more potent here.

First: Nc1nc(O[C@H](c2ccc(Cl)cc2-c2ccc(F)c(Cl)c2)C(F)(F)F)cc(N2CCC3(CC2)CN[C@H](C(=O)O)C3)n1 [Example 34av, (S)-8-(2-amino-6-((R)-1-(3′,5-dichloro-4′-fluoro-[1,1′-biphenyl]-2-yl)-2,2,2-trifluoroethoxy)pyrimidin-4-yl)-2,8-diazaspiro[4.5]decane-3-carboxylic acid]
Second: Cc1ccn(-c2ccccc2[C@@H](Oc2ccnc(N3CCC4(CC3)CN[C@H](C(=O)O)C4)c2)C(F)(F)F)n1 [Example 44, (S)-8-(4-((R)-2,2,2-trifluoro-1-(2-(3-methyl-1H-pyrazol-1-yl)phenyl)ethoxy)pyridin-2-yl)-2,8-diazaspiro[4.5]decane-3-carboxylic acid]
The IC50 of the first is lower: less than 0.05 µM for the first, 0.3 to 3 µM for the second. The first is the more potent here.

First: (S)-8-(2-amino-6-((R)-1-(4-bromo-2-(3-methyl-H-pyrazol-1-yl)phenyl)-2,2,2-trifluoroethoxy)pyrimidin-4-yl)-2,8-diazaspiro[4.5]decane-3-carboxylic acid [Example 10o]
Second: CNS(=O)(=O)c1cccc(-c2cc(Cl)ccc2[C@@H](Oc2cc(N3CCC4(CC3)CN[C@H](C(=O)O)C4)nc(N)n2)C(F)(F)F)c1 [Example 34ck, (S)-8-(2-amino-6-((R)-1-(5-chloro-3′-(N-methylsulfamoyl)-[1,1′-biphenyl]-2-yl)-2,2,2-trifluoroethoxy)pyrimidin-4-yl)-2,8-diazaspiro[4.5]decane-3-carboxylic acid]
The IC50 of the first is lower: less than 0.05 µM for the first, 0.05 to 0.3 µM for the second.

First: CCc1ccc(-n2ccc(C)n2)c([C@@H](Oc2cc(N3CCC4(CC3)CN[C@H](C(=O)O)C4)nc(N)n2)C(F)(F)F)c1 [Example 22a, (S)-8-(2-amino-6-((R)-1-(5-ethyl-2-(3-methyl-H-pyrazol-1-yl)phenyl)-2,2,2-trifluoroethoxy)pyrimidin-4-yl)-2,8-diazaspiro[4.5]decane-3-carboxylic acid]
Second: Nc1ccc(-c2cc(Cl)ccc2[C@@H](Oc2cc(N3CCC4(CC3)CNC(C(=O)O)C4)nc(N)n2)C(F)(F)F)cc1 (stereo partly drawn) [Example 34h, 8-(2-amino-6-((R)-1-(4′-amino-5-chloro-[1,1′-biphenyl]-2-yl)-2,2,2-trifluoroethoxy)pyrimidin-4-yl)-2,8-diazaspiro[4.5]decane-3-carboxylic acid]
The IC50 of the first is lower: less than 0.05 µM for the first, 0.3 to 3 µM for the second.

First: CCCCS(=O)(=O)c1cccc(-c2cc(Cl)ccc2[C@@H](Oc2cc(N3CCC4(CC3)CN[C@H](C(=O)O)C4)nc(N)n2)C(F)(F)F)c1 [Example 34l, (S)-8-(2-amino-6-((R)-1-(3′-(butylsulfonyl)-5-chloro-[1,1′-biphenyl]-2-yl)-2,2,2-trifluoroethoxy)pyrimidin-4-yl)-2,8-diazaspiro[4.5]decane-3-carboxylic acid]
Second: CCCCOc1ccc(-c2ccc([C@@H](Oc3cc(N4CCC5(CC4)CN[C@H](C(=O)O)C5)nc(N)n3)C(F)(F)F)c(-n3ccc(C)n3)c2)cc1F [Example 1ca, (S)-8-(2-amino-6-((R)-1-(4′-butoxy-3′-fluoro-3-(3-methyl-1H-pyrazol-1-yl)-[1,1′-biphenyl]-4-yl)-2,2,2-trifluoroethoxy)pyrimidin-4-yl)-2,8-diazaspiro[4.5]decane-3-carboxylic acid]
The IC50 of the first is higher: 0.05 to 0.3 µM for the first, less than 0.05 µM for the second.

First: Nc1nc(O[C@H](c2ccc(-c3cccc(C(F)(F)F)c3)cc2)C(F)(F)F)cc(N2CCC3(CC2)CN[C@H](C(=O)O)C3)n1 [Example 55as, (S)-8-(2-amino-6-((R)-2,2,2-trifluoro-1-(3′-(trifluoromethyl)-[1,1′-biphenyl]-4-yl)ethoxy)pyrimidin-4-yl)-2,8-diazaspiro[4.5]decane-3-carboxylic acid]
Second: Nc1nc(O[C@H](c2ccc(-c3ccc(C(=O)O)cc3)cc2)C(F)(F)F)cc(N2CCC3(CC2)CN[C@H](C(=O)O)C3)n1 [Example 55br, (S)-8-(2-amino-6-((R)-1-(4′-carboxy-[1,1′-biphenyl]-4-yl)-2,2,2-trifluoroethoxy)pyrimidin-4-yl)-2,8-diazaspiro[4.5]decane-3-carboxylic acid]
The IC50 of the first is lower: 0.05 to 0.3 µM for the first, 0.3 to 3 µM for the second. The first is the more potent here.
